This note sets out measurements from US20130109682A1, “CYCLIC ETHER COMPOUNDS USEFUL AS KINASE INHIBITORS” (NOVARTIS AG, priority 2010, published 2013).

In experiment [1] the target is FGFR3 kinase (Homo sapiens, UniProt P22607). Kind of experiment: FGFR3 kinase inhibition assay (LanthaScreen TR-FRET). It counts as biochemical. The procedure: FGFR3 Kinase Inhibition Assay
(§1) LanthaScreen™ is the detection of Time-Resolved Fluorescence Resonance Energy Transfer (TR-FRET) using lanthanide chelates to measure interactions between various binding partners. The application of TR-FRET to assay kinase activity was first described by Mathis (1995). A TR-FRET assay was used to measure FGFR3 kinase inhibitory activity. The assay panel was run on a Biomek FX liquid handling workstations. To the assay plates containing 50 mL compound or control solutions, 4.5 μL of buffer A (50 mM TRIS-HCl pH 7.4, 2 mM DTT, 0.02% Tween 20, 0.02 mM Na3VO4, H2O nanpure) including a generic concentration of ATP (2 μM f.c.) was added per well, followed by 4.5 μL of buffer B (4 uM ATP in Buffer A) including a generic concentration of polyEAY (50 nM f.c.), FGFR3 kinase, and divalent cations. Final concentration of kinase and cations were: [FGFR3 kinase]=0.20 nM, [Mg]=3 mM, [Mn]=3 mM. After 1 hour of incubation the kinase reactions were stopped by the addition of 4.5 μL of stop solution D (50 mM EDTA, 20 mM TRIS-HCl pH 7.4, 0.04% NP-40) immediately followed by 4.5 μL of buffer A (50 mM TRIS-HCl pH 7.4, 2 mM DTT, 0.02% Tween 20, 0.02 mM Na3VO4, H2O nanpure) including the Tb-labeled P-20 antibody to give a total detection volume of 18 μL. After an incubation time of 45 min in the dark, the plates were transferred into the Pherastar fluorescence reader for counting. The effect of compound on the enzymatic activity was obtained from the linear progress curves and determined from one reading (end point measurement).
In general terms: Time-resolved FRET reads energy transfer from a long-lived donor to a nearby acceptor.

In experiment [2] the target is PIM2 (Homo sapiens, UniProt Q9P1W9). Kind of experiment: Pim 2 AlphaScreen assay (high ATP). It counts as biochemical. To be noted: read-out: Pim2 IC50. A digest of the protocol:
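This is a bead-based AlphaScreen run at high ATP (11-125× Km) with biotin-Bad peptide (100 nM in the substrate mix), in 50 mM Hepes pH 7.5, 5 mM MgCl2, 0.05% BSA, 0.01% Tween-20, 1 mM DTT and 2.5% DMSO final. After ~2 h the reaction was stopped with EDTA. Phospho-peptide was detected overnight with anti-phospho Ser/Thr antibody on Protein A and streptavidin beads, giving IC50.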
In general terms: Bead proximity is the source of the signal in Alpha formats.

For experiment [3], the target named is KDR kinase (Homo sapiens, UniProt P35968). Kind of experiment: KDR kinase inhibition assay (LanthaScreen TR-FRET). The class given is biochemical. The procedure: KDR Kinase Inhibition Assay
as §1, with “KDR” for “FGFR3”, “nL” for “mL”, “[KDR kinase]=0.38” for “[FGFR3 kinase]=0.20”, “[Mg]=10” for “[Mg]=3”, “[Ca]=1” for “[Mn]=3”

For experiment [4], the target named is T1, hERG (Homo sapiens, UniProt Q12809).
T1 construct: host or cells: crude membrane suspension
Description: hERG binding assay ([3H] dofetilide displacement). To be noted: dofetilide displacement; read-out: HERGdof IC50. A digest of the protocol:
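Displacement of 2.5 nM [3H]dofetilide from crude hERG membranes (ca. 15 μg protein) by filtration binding, 90 min at room temperature, 0.5% DMSO final. Non-specific binding defined with 25 μM terfenadine; compounds run as 9-point duplicate curves from 30 μM to 3 nM.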
In general terms: hERG is a cardiac potassium channel; its block is linked to QT prolongation.

Where two headings read alike, the source gives them in different places.

Sequence of PIM2 (Q9P1W9 whole entry): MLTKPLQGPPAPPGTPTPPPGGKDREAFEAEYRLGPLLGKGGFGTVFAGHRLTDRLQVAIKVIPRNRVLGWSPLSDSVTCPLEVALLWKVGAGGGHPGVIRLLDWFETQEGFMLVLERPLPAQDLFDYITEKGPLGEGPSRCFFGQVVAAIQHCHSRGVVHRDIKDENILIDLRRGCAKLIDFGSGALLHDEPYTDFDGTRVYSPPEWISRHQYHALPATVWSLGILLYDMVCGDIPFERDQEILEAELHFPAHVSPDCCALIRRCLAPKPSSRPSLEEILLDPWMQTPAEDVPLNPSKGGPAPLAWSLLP
Sequence of FGFR3 kinase (P22607 23-806): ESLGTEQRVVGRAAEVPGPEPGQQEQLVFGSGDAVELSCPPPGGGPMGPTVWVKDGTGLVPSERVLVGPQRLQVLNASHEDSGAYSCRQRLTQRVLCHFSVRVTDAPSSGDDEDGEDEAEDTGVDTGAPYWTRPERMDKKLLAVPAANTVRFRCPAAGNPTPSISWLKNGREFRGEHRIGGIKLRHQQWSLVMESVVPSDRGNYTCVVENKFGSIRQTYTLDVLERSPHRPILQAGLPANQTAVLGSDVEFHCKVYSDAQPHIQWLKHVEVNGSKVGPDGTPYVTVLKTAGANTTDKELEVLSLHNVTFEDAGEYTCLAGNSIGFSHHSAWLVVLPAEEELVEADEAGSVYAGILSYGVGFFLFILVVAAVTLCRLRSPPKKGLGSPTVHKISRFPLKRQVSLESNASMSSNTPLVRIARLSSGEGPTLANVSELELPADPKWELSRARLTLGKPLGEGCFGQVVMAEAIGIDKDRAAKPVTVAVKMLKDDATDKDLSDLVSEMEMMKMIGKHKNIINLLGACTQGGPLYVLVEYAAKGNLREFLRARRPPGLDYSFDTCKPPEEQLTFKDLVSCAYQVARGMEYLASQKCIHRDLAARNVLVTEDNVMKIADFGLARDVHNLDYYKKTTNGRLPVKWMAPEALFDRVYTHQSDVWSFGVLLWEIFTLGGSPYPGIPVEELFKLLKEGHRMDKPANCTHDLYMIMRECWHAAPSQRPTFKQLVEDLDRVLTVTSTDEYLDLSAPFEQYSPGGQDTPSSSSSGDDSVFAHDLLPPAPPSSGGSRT
T1 sequence (Q12809 whole entry): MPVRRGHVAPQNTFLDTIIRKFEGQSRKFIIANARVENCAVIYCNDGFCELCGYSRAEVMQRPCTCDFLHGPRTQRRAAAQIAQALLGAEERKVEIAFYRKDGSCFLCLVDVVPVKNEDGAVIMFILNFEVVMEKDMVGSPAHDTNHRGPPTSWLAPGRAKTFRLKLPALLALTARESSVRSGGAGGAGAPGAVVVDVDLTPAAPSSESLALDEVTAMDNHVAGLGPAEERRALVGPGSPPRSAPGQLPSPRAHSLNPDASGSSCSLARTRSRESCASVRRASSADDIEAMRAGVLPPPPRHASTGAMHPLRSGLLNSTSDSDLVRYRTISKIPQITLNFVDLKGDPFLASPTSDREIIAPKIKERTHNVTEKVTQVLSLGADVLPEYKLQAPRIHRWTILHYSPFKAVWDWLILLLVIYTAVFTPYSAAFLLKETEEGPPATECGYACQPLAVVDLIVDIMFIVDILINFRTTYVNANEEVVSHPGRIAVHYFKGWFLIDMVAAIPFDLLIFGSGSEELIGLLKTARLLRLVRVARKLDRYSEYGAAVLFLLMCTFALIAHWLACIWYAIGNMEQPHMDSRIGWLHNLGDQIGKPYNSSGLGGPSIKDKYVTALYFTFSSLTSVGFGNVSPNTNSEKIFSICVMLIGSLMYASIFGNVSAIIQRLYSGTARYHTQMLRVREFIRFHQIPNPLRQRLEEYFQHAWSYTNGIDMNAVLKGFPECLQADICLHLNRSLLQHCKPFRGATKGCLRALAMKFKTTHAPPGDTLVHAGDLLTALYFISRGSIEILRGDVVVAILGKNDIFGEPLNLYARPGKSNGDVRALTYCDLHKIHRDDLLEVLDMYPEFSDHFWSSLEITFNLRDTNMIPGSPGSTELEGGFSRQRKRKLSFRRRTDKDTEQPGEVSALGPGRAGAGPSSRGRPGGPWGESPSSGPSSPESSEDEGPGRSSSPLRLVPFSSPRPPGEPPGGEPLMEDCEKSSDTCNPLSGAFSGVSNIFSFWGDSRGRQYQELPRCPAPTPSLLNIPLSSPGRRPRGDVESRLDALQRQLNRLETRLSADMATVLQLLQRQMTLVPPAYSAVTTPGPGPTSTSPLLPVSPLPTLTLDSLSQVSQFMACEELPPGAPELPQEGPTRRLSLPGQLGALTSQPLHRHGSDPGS
Sequence of KDR kinase (P35968 20-1356): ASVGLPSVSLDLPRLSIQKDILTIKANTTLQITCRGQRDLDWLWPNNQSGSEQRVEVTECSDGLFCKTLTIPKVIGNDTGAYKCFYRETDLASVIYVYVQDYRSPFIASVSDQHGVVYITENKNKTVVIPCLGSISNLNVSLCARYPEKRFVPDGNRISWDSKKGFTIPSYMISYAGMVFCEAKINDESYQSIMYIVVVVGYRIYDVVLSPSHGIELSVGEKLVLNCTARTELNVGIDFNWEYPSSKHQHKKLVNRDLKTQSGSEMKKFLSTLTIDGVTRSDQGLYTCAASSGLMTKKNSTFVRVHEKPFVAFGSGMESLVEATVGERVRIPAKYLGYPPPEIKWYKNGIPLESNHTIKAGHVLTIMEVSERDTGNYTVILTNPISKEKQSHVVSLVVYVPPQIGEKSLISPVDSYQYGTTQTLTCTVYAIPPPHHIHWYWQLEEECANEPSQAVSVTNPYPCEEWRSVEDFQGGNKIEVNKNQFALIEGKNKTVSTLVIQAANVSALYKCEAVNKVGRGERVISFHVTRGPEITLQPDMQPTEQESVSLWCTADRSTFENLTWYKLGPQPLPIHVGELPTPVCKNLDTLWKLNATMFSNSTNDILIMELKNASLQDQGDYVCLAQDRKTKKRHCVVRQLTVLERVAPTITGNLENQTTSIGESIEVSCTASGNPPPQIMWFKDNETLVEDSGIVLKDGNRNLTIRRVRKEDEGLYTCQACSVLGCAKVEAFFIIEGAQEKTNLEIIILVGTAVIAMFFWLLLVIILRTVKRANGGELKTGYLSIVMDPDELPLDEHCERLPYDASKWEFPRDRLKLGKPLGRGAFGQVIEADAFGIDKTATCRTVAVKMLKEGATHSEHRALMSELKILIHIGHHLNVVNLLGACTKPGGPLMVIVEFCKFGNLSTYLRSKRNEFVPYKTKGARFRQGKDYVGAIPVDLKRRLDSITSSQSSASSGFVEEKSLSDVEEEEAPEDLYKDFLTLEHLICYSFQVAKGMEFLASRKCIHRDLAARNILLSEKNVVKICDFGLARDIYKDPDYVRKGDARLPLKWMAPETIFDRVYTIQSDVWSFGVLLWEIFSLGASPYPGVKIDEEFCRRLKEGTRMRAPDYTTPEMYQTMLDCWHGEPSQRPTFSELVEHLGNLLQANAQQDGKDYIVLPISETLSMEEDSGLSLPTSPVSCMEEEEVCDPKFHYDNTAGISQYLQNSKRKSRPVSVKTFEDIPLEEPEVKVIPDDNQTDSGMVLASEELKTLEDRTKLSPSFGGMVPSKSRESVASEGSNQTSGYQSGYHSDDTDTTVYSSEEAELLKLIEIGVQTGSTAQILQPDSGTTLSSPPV

For orientation: IC50 means the concentration needed to halve the response being measured. As to `Nc1ncc(-c2ccccc2)nc1C(=O)Nc1cnccc1[C@H]1C[C@@H](N)[C@H](O)[C@@H](C2CC2)O1` [Example 346, 3-amino-N-(4-((2R,4R,5S,6R)-4-amino-6-cyclopropyl-5-hydroxytetrahydro-2H-pyran-2-yl)pyridin-3-yl)-6-phenylpyrazine-2-carboxamide], the values for the IC50 in experiment [1], in experiment [2] and in experiment [3] (TR-FRET assay) were 180 nM, 62.7 nM and 28 nM, respectively.

Take `Nc1ncc(-c2ccccc2)nc1C(=O)Nc1cnccc1[C@H]1C[C@@H](O)[C@H](O)[C@@H](CO)O1` [Example 341, 3-amino-N-(4-((2R,4R,5S,6R)-4,5-dihydroxy-6-(hydroxymethyl)tetrahydro-2H-pyran-2-yl)pyridin-3-yl)-6-phenylpyrazine-2-carboxamide]: the IC50 in experiment [1] is 480 nM; in experiment [2] it was more than 25000 nM; in experiment [3] (TR-FRET assay), 60 nM.

On to `Nc1ncc(-c2ccccc2)nc1C(=O)Nc1cnccc1[C@@H]1C[C@H](N)[C@]2(O)CCC[C@@H]2O1` [Example 185, 3-amino-N-(4-((2S,4S,4aR,7aS)-4-amino-4a-hydroxyoctahydrocyclopenta[b]pyran-2-yl)pyridin-3-yl)-6-phenylpyrazine-2-carboxamide], for which the IC50 in experiment [1] was more than 10000 nM; in experiment [2] it was 6430 nM; in experiment [3] (TR-FRET assay), 2000 nM.

For `Nc1ncc(-c2ccccc2)nc1C(=O)Nc1cnccc1[C@@H]1C[C@H](N)[C@@H](O)[C@H](C2CC2)O1` [Example 349, 3-amino-N-(4-((2S,4S,5R,6S)-4-amino-6-cyclopropyl-5-hydroxytetrahydro-2H-pyran-2-yl)pyridin-3-yl)-6-phenylpyrazine-2-carboxamide], the IC50 in experiment [1] came to 6900 nM; in experiment [2], 2740 nM; in experiment [3] (TR-FRET assay) it was 2300 nM.

Turning to `CC[C@H]1O[C@@H](c2ccncc2NC(=O)c2nc(-c3ccccc3)cnc2N)C[C@@H](N)[C@@H]1O` [Example 343, 3-amino-N-(4-((2R,4R,5S,6R)-4-amino-6-ethyl-5-hydroxytetrahydro-2H-pyran-2-yl)pyridin-3-yl)-6-phenylpyrazine-2-carboxamide], the results for the IC50 in experiment [1], in experiment [2] and in experiment [3] (TR-FRET assay) were 35 nM, 49.1 nM and 13 nM, respectively.

Consider `CCC[C@H]1O[C@@H](c2ccncc2NC(=O)c2nc(-c3ccccc3)cnc2N)C[C@@H](O)[C@@H]1O` [Example 340, 3-amino-N-(4-((2R,4R,5S,6R)-4,5-dihydroxy-6-propyltetrahydro-2H-pyran-2-yl)pyridin-3-yl)-6-phenylpyrazine-2-carboxamide], for which the IC50 came to 210 nM in experiment [1], 3650 nM in experiment [2] and 130 nM in experiment [3] (TR-FRET assay).

As for `CC(C)[C@H]1C[C@@H](N)C[C@@H](c2ccncc2NC(=O)c2nc(-c3ccccc3)cnc2N)O1` [Example 292, 3-amino-N-(4-((2S,4R,6R)-4-amino-6-isopropyltetrahydro-2H-pyran-2-yl)pyridin-3-yl)-6-phenylpyrazine-2-carboxamide], the figures for the IC50 in experiment [1], in experiment [2] and in experiment [3] (TR-FRET assay) were more than 10000 nM, 764 nM and 4300 nM, respectively.

As for `C[C@H]1O[C@@H](c2ccncc2NC(=O)c2nc(-c3ccccc3)cnc2N)[C@H](F)[C@@H](O)[C@]1(C)O` [Example 58, 3-amino-N-(4-((2S,3R,4S,5S,6R)-3-fluoro-4,5-dihydroxy-5,6-dimethyltetrahydro-2H-pyran-2-yl)pyridin-3-yl)-6-phenylpyrazine-2-carboxamide], the IC50 in experiment [4] was more than 30 µM; in experiment [3], 280 nM.

For `CC[C@]1(O)[C@H](N)C[C@H](c2ccncc2NC(=O)c2nc(-c3ccccc3)cnc2N)O[C@@H]1C` [Example 187, 3-amino-N-(4-((2R,4R,5S,6R)-4-amino-5-ethyl-5-hydroxy-6-methyltetrahydro-2H-pyran-2-yl)pyridin-3-yl)-6-phenylpyrazine-2-carboxamide], the figures for the IC50 in experiment [1], in experiment [2] and in experiment [3] (TR-FRET assay) were 830 nM, 86.3 nM and 42 nM, respectively.

On to `C[C@H]1O[C@@H](c2ccncc2NC(=O)c2nc(-c3ccccc3)cnc2N)C[C@@H](O)[C@]1(C)O` [Example 84, 3-amino-N-(4-((2R,4R,5S,6R)-4,5-dihydroxy-5,6-dimethyltetrahydro-2H-pyran-2-yl)pyridin-3-yl)-6-phenylpyrazine-2-carboxamide], for which the IC50 in experiment [4] was more than 30 µM; in experiment [3], 16 nM.

Regarding `CC(C)[C@H]1O[C@@H](c2ccncc2NC(=O)c2nc(-c3ccccc3)cnc2N)C[C@@H](N)[C@@H]1O` [Example 356, 3-amino-N-(4-((2R,4R,5S,6R)-4-amino-5-hydroxy-6-isopropyltetrahydro-2H-pyran-2-yl)pyridin-3-yl)-6-phenylpyrazine-2-carboxamide], the IC50 in experiment [1] stood at 220 nM; in experiment [2], 28.1 nM; in experiment [3] (TR-FRET assay) it was 43 nM.

Consider `CC[C@]1(O)[C@H](C)O[C@H](c2ccncc2NC(=O)c2nc(-c3ccccc3)cnc2N)C[C@@H]1N` [Example 189, 3-amino-N-(4-((2S,4S,5R,6S)-4-amino-5-ethyl-5-hydroxy-6-methyltetrahydro-2H-pyran-2-yl)pyridin-3-yl)-6-phenylpyrazine-2-carboxamide], for which the results for the IC50 in experiment [1], in experiment [2] and in experiment [3] (TR-FRET assay) were 7400 nM, 25000 nM and 1400 nM, respectively.

`C[C@@H]1O[C@H](c2ccncc2NC(=O)c2nc(-c3ccccc3)cnc2N)C[C@H](O)[C@@]1(C)O` [Example 86, 3-amino-N-(4-((2S,4S,5R,6S)-4,5-dihydroxy-5,6-dimethyltetrahydro-2H-pyran-2-yl)pyridin-3-yl)-6-phenylpyrazine-2-carboxamide]: the IC50 in experiment [4] was found to be 25 µM; in experiment [3], 300 nM.

Regarding `C=C1[C@@H](O)C[C@@H](c2ccncc2NC(=O)c2nc(-c3ccccc3)cnc2N)OC12CC2` [Example 5, 3-amino-N-(4-((5S,7S)-7-hydroxy-8-methylene-4-oxaspiro[2.5]octan-5-yl)pyridin-3-yl)-6-phenylpyrazine-2-carboxamide], the IC50 was more than 30 µM in experiment [4] and 10 nM in experiment [3].

With `Nc1ncc(-c2ccccc2)nc1C(=O)Nc1cnccc1[C@H]1C[C@@H](O)[C@H](O)[C@@H](CCl)O1` [Example 36, 3-amino-N-(4-((2R,4R,5S,6S)-6-(chloromethyl)-4,5-dihydroxytetrahydro-2H-pyran-2-yl)pyridin-3-yl)-6-phenylpyrazine-2-carboxamide], the half-inhibitory concentration (IC50) in experiment [4] is more than 30 µM; in experiment [3] it was 1 nM.

With `C[C@@H]1O[C@H](c2ccncc2NC(=O)c2nc(-c3ccccc3)cnc2N)[C@@H](F)[C@H](O)[C@@]1(C)O` [Example 63, 3-amino-N-(4-((2R,3S,4R,5R,6S)-3-fluoro-4,5-dihydroxy-5,6-dimethyltetrahydro-2H-pyran-2-yl)pyridin-3-yl)-6-phenylpyrazine-2-carboxamide], the IC50 was more than 30 µM in experiment [4] and 220 nM in experiment [3].
